# Results taken from patent US8183263B2 (priority 2007, dated 2012).
# Test system: HCV replicon
# Test: HCV replicon replication assay (NPT level by captured ELISA)
# Format: cell-based
# Conditions: Hepatitis C virus, 72 h; Huh-7 HCV replicon-containing cells, three days incubation; read-out: Activity (inhibition of HCV replicon replication)
# Outline: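 Huh-7 cells carrying HCV subgenomic replicon (NS3–NS5B, neo reporter) treated 3 days at 37 °C with 6 concentrations from 10 to 0.03 micromolar in G418-free medium, equal DMSO across wells. Replication measured on day four as NPTII level by in-cell captured ELISA on fixed cells; interferon alpha as positive control.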
row,SMILES,EC50
1,"CC(F)(F)c1cc(Nc2nc(-c3cccnc3)c(F)s2)ccc1Oc1ccccc1 [Cmp 82, N-(3-(1,1-difluoroethyl)-4-phenoxyphenyl)-5-fluoro-4-(pyridin-3-yl)thiazol-2-amine]",< 1000 nM
2,"Fc1sc(Nc2ccc(OCCOc3ccccc3)c(C(F)(F)F)c2)nc1-c1cccnc1 [Cmp 139, 5-fluoro-N-(4-(2-phenoxyethoxy)-3-(trifluoromethyl)phenyl)-4-(pyridin-3-yl)thiazol-2-amine]",< 1000 nM
3,"CCCCCCCCOc1ccc(Nc2nc(-c3cccnc3)cs2)cc1C(=O)OC [Cmp 154, methyl 2-(octyloxy)-5-(4-(pyridin-3-yl)thiazol-2-ylamino)benzoate]",< 1000 nM
4,"CCCCCCCCc1oc2ccc(Nc3nc(-c4cccnc4)cs3)cc2c1Cl [Cmp 183, N-(3-chloro-2-octylbenzofuran-5-yl)-4-(pyridin-3-yl)thiazol-2-amine]",< 1000 nM
5,"CCCCCCCC(=O)c1ccc(Nc2nc(-c3cccnc3)cs2)cc1 [Cmp 111, 1-(4-(4-(pyridin-3-yl)thiazol-2-ylamino)phenyl)octan-1-one]",< 1000 nM
6,"CCCCCCCCOc1ccc(Nc2ncc(Oc3cccnc3)s2)cc1C(F)(F)F [Cmp 144, N-(4-(octyloxy)-3-(trifluoromethyl)phenyl)-5-(pyridin-3-yloxy)thiazol-2-amine]",< 1000 nM
7,"CCCCCCCCN(C)c1ccc(Nc2nc(-c3cccnc3)c(Cl)s2)cc1C(F)(F)F [Cmp 158, N^4-(5-chloro-4-(pyridin-3-yl)thiazol-2-yl)-N^1-methyl-N^1-octyl-2-(trifluoromethyl)benzene-1,4-diamine]",< 1000 nM
8,"CCCCCOc1cc(Nc2nc(-c3cccnc3)cs2)ccc1C#N [Cmp 27, 2-(pentyloxy)-4-(4-(pyridin-3-yl)thiazol-2-ylamino)benzonitrile]",< 1000 nM
9,"CCCCCCCCOc1c(F)cc(Nc2nc(-c3cccnc3)c(F)s2)cc1F [Cmp 119, N-(3,5-difluoro-4-(octyloxy)phenyl)-5-fluoro-4-(pyridin-3-yl)thiazol-2-amine]",< 1000 nM
10,"CCCCCCCCc1ccc(Nc2nc(-c3cccnc3)c(F)s2)cc1 [Cmp 31, 5-fluoro-N-(4-octylphenyl)-4-(pyridin-3-yl)thiazol-2-amine]",< 1000 nM
11,"C/C=N/N(c1ccc(OCCCCCCCC)cc1)c1nc(-c2cccnc2)cs1 [Cmp 34, (E)-2-(2-ethylidene-1-(4-(octyloxy)phenyl)hydrazinyl)-4-(pyridin-3-yl)thiazole]",< 1000 nM
12,"CCCCCCCCc1ccc(Nc2nc(-c3ccc(F)nc3)cs2)cc1C(F)(F)F [Cmp 168, 4-(6-fluoropyridin-3-yl)-N-(4-octyl-3-(trifluoromethyl)phenyl)thiazol-2-amine]",< 1000 nM
13,"CCCCCCCCOc1ccc(Nc2nc(-c3cccnc3)cs2)cc1C(C)=O [Cmp 140, 1-(2-(octyloxy)-5-(4-(pyridin-3-yl)thiazol-2-ylamino)phenyl)ethanone]",< 1000 nM
14,"FC(F)(F)c1cc(Nc2nc(-c3cccnc3)cs2)ccc1Oc1ccccc1 [Cmp 47, N-(4-phenoxy-3-(trifluoromethyl)phenyl)-4-(pyridin-3-yl)thiazol-2-amine]",< 1000 nM
15,"CC/C=N/N(c1ccc(OCCCCCCCC)cc1)c1nc(-c2cccnc2)cs1 [Cmp 32, (E)-2-(1-(4-(octyloxy)phenyl)-2-propylidenehydrazinyl)-4-(pyridin-3-yl)thiazole]",< 1000 nM
16,"Cc1ccc(OCCCCc2ccc(Nc3nc(-c4cccnc4)cs3)cc2C(F)(F)F)cc1 [Cmp 117, 4-(pyridin-3-yl)-N-(4-(4-(p-tolyloxy)butyl)-3-(trifluoromethyl)phenyl)thiazol-2-amine]",< 1000 nM
17,"FC(F)(F)c1cc(Nc2nc(-c3cccnc3)cs2)ccc1OCCCCc1ccc(Cl)cc1 [Cmp 23, N-(4-(4-(4-chlorophenyl)butoxy)-3-(trifluoromethyl)phenyl)-4-(pyridin-3-yl)thiazol-2-amine]",< 1000 nM
18,"Cc1ccc(CCCCOc2ccc(Nc3nc(-c4cccnc4)c(F)s3)cc2C(F)(F)F)cc1 [Cmp 107, 5-fluoro-4-(pyridin-3-yl)-N-(4-(4-p-tolylbutoxy)-3-(trifluoromethyl)phenyl)thiazol-2-amine]",< 1000 nM
19,"CCCCCCCCOc1cc(Nc2nc(-c3cccnc3)c(F)s2)ccc1C(F)(F)F [Cmp 78, 5-fluoro-N-(3-(octyloxy)-4-(trifluoromethyl)phenyl)-4-(pyridin-3-yl)thiazol-2-amine]",< 1000 nM
20,"Fc1sc(Nc2ccc(CCCCCOC3CCCC3)c(C(F)(F)F)c2)nc1-c1cccnc1 [Cmp 230, N-(4-(5-(cyclopentyloxy)pentyl)-3-(trifluoromethyl)phenyl)-5-fluoro-4-(pyridin-3-yl)thiazol-2-amine]",< 1000 nM
21,"Cc1ccc(OCCCc2ccc(Nc3nc(-c4cccnc4)cs3)cc2C(F)(F)F)cc1 [Cmp 118, 4-(pyridin-3-yl)-N-(4-(3-(p-tolyloxy)propyl)-3-(trifluoromethyl)phenyl)thiazol-2-amine]",< 1000 nM

row,SMILES,EC50
1,"CCCCCCCc1nc2cc(Nc3nc(-c4cnc(OC)nc4)c(F)s3)ccc2o1 [Cmp 57, N-(5-fluoro-4-(2-methoxypyrimidin-5-yl)thiazol-2-yl)-2-heptylbenzo[d]oxazol-5-amine]",< 1000 nM
2,"CCCCCCCCOc1ccc(Nc2nc(-c3cncc(C#N)c3)c(F)s2)cc1C(F)(F)F [Cmp 181, 5-(5-fluoro-2-(4-(octyloxy)-3-(trifluoromethyl)phenylamino)thiazol-4-yl)nicotinonitrile]",< 1000 nM
3,"CCCCCCCCc1ccc(Nc2nc(-c3cnc(OC)nc3)c(F)s2)cc1C(F)(F)F [Cmp 36, 5-fluoro-4-(2-methoxypyrimidin-5-yl)-N-(4-octyl-3-(trifluoromethyl)phenyl)thiazol-2-amine]",< 1000 nM
4,"CCCCCCCCOc1ccc(Nc2nc(-c3cncc(O)c3)cs2)cc1C(F)(F)F [Cmp 152, 5-(2-(4-(octyloxy)-3-(trifluoromethyl)phenylamino)thiazol-4-yl)pyridin-3-ol]",< 1000 nM
5,"CCCCCCCCOc1c(F)cc(Nc2nc(-c3cccnc3)cs2)cc1F [Cmp 110, N-(3,5-difluoro-4-(octyloxy)phenyl)-4-(pyridin-3-yl)thiazol-2-amine]",< 1000 nM
6,"CCCCCCCS(=O)(=O)CCc1ccc(Nc2nc(-c3cccnc3)cs2)cc1 [Cmp 20, N-(4-(2-(heptylsulfonyl)ethyl)phenyl)-4-(pyridin-3-yl)thiazol-2-amine]",1000 to 10000 nM
7,"CCCCCCCCOc1cc(Nc2nc(-c3cccnc3)cs2)ccc1C [Cmp 25, N-(4-methyl-3-(octyloxy)phenyl)-4-(pyridin-3-yl)thiazol-2-amine]",< 1000 nM
8,"CCc1ccc(Oc2ccc(Nc3nc(-c4cnc(OC)nc4)cs3)cc2C(C)=O)cc1 [Cmp 87, 1-(2-(4-ethylphenoxy)-5-(4-(2-methoxypyrimidin-5-yl)thiazol-2-ylamino)phenyl)ethanone]",< 1000 nM
9,"Fc1sc(Nc2ccc(CCCOc3ccc(Cl)cc3)c(C(F)(F)F)c2)nc1-c1cccnc1 [Cmp 104, N-(4-(3-(4-chlorophenoxy)propyl)-3-(trifluoromethyl)phenyl)-5-fluoro-4-(pyridin-3-yl)thiazol-2-amine]",< 1000 nM
10,"CCCCCCCCOc1cc(Nc2nc(-c3ccc(F)cc3)cs2)ccc1C(F)(F)F [Cmp 75, 4-(4-fluorophenyl)-N-(3-(octyloxy)-4-(trifluoromethyl)phenyl)thiazol-2-amine]",< 1000 nM
11,"CCCCCCCCc1ccc(Nc2nc(-c3cnccn3)c(Cl)s2)cc1C(F)(F)F [Cmp 170, 5-chloro-N-(4-octyl-3-(trifluoromethyl)phenyl)-4-(pyrazin-2-yl)thiazol-2-amine]",< 1000 nM
12,"CCCCCCc1ccc(Nc2nc(-c3cccnc3)cs2)cc1C(F)(F)F [Cmp 105, N-(4-hexyl-3-(trifluoromethyl)phenyl)-4-(pyridin-3-yl)thiazol-2-amine]",< 1000 nM
13,"Cc1ccc(Nc2nc(-c3ccc(F)cc3)c(F)s2)cc1OCCOc1ccccc1 [Cmp 60, 5-fluoro-4-(4-fluorophenyl)-N-(4-methyl-3-(2-phenoxyethoxy)phenyl)thiazol-2-amine]",< 1000 nM
14,"CCCCCCCCc1c(F)cc(Nc2nc(-c3cccnc3)cs2)cc1F [Cmp 94, N-(3,5-difluoro-4-octylphenyl)-4-(pyridin-3-yl)thiazol-2-amine]",< 1000 nM
15,"CC(=O)c1cc(Nc2nc(-c3cccnc3)cs2)ccc1Oc1ccc(Cl)cc1 [Cmp 84, 1-(2-(4-chlorophenoxy)-5-(4-(pyridin-3-yl)thiazol-2-ylamino)phenyl)ethanone]",< 1000 nM
16,"CCCCCCCCOc1ccc(Nc2nc(-c3ccc4nncn4c3)c(F)s2)cc1C(F)(F)F [Cmp 214, 4-([1,2,4]triazolo[4,3-a]pyridin-6-yl)-5-fluoro-N-(4-(octyloxy)-3-(trifluoromethyl)phenyl)thiazol-2-amine]",< 1000 nM
17,"CCCCCCCCOc1ccc(Nc2nc(-c3cc(F)sc3C(N)=O)cs2)cc1C(F)(F)F [Cmp 184, 5-fluoro-3-(2-(4-(octyloxy)-3-(trifluoromethyl)phenylamino)thiazol-4-yl)thiophene-2-carboxamide]",< 1000 nM
18,"COc1ncc(-c2csc(Nc3ccc(C)c(OCCOc4ccccc4)c3)n2)cn1 [Cmp 40, 4-(2-methoxypyrimidin-5-yl)-N-(4-methyl-3-(2-phenoxyethoxy)phenyl)thiazol-2-amine]",< 1000 nM
19,"Fc1sc(Nc2ccc(OCCCCc3cccs3)c(C(F)(F)F)c2)nc1-c1cccnc1 [Cmp 90, 5-fluoro-4-(pyridin-3-yl)-N-(4-(4-(thiophen-2-yl)butoxy)-3-(trifluoromethyl)phenyl)thiazol-2-amine]",< 1000 nM
20,"Cc1ccc(CCCCOc2ccc(Nc3nc(-c4cccnc4)c(Cl)s3)cc2C(F)(F)F)cc1 [Cmp 109, 5-chloro-4-(pyridin-3-yl)-N-(4-(4-p-tolylbutoxy)-3-(trifluoromethyl)phenyl)thiazol-2-amine]",< 1000 nM

# Same assay, conditions: Hepatitis C virus, Huh-7, 72 h, read-out: Activity (inhibition of HCV replicon replication)
row,SMILES,EC50
1,"CCCCCCCCc1ccc(Nc2nc(-c3ccc(OP(=O)(OC)OC)nc3)cs2)cc1C(F)(F)F [Cmp 134, dimethyl 5-(2-(4-octyl-3-(trifluoromethyl)phenylamino)thiazol-4-yl)pyridin-2-yl phosphate]",< 1000 nM
